# Measured values published in patent US20090081170A1, “Cardiac progenitor cells” (priority 2007, published 2009).
# Assays:
# [1] = tested on: epicardial explants from E10.5 hearts; test: Embryonic epicardial explant cultures; format: cell-based, mouse; details: E10.5 explants
# Text: In order to support our in vivo phenotype analyses and assess a direct effect of Tβ4 on developing epicardium, we established epicardial explant cultures from wild-type hearts13. We initially derived epicardial explants from stages E10.5 to E16.5 and postnatal day 1 (P1) neonates, treated with either, Tβ4, with VEGF and FGF7 [59], or a combination of Tβ4 and growth factors. Explants from E10.5 hearts, coincident with the formation of the epicardium, produced extensive outgrowths that differentiated into SMαA- and Tie2-positive cells (FIG. 3 b).
# Akt (P-Ser 473) = test: Tβ4 treatment of C2C12 myoblast cells, Akt phosphorylation; format: cell-based, mouse; details: C2C12 myoblasts, Tβ4 10 ng/ml
# Description: Western blotting was performed using standard methods (Tris-Tricine 4-20% gradient SDS-PAGE for blotting of Tβ4 or Tβ10 peptides and Tris-glycine SDS-PAGE for all other proteins) using antibodies against Tβ4 (abcam), Tβ10 (Biodesign International), Tie-2 (Santa Cruz), SMαA (Sigma), GAPDH (Chemicon), Caspase-8 (Santa Cruz), Cleaved caspase-3, total Akt and Phospho-Akt (both Cell Signalling Technology).
# C2C12 cells were cultured in DMEM containing 10% FBS. Tβ4 (10 ng/ml, mmundiagnostik AG) was added and cells harvested over a time course to assess the degree of phosphorylation (activation) of Akt.
# infarcted mouse hearts = test: Myocardial infarction model (coronary artery ligation) treated with Tβ4 or vehicle; format: in vivo
# Description: For in vivo studies, Western blotting, immunofluorescence and immunohistochemistry were performed using standard protocols with the following antibodies: Ki67 (Dako Cytomation), SMαA, sarcomeric α-actinin (Sigma), cardiac myosin binding protein […]-1, CD4, CD8b (all BD Pharmingen), Nkx2.5, VEGF, Tie-2 (all Santa Cruz), GAPDH, Tbx18 (both Chemicon), Isl-1 (clone 39.4D5, Developmental Studies Hybridoma Bank), Tbx18, TNFα, IL-6, IL-10, GFP (full length-detects EYFP), MCP1, cTnT, F4/80, CD45, MPO, (all abcam), Living colours Av peptide, polyclonal and mouse monoclonal JL-8 antibodies (detect EYFP, Clontech) Cx43 (Zymed) and Raldh2 (gift of P. McCaffery). Images were acquired using either a Zeiss Axiolmager with ApoTome or a Zeiss LSM 510 confocal microscope equipped with argon and helium neon lasers using a 63×/1.4 lens. Adult heart samples post myocardial infarction (MI) were kindly provided by James Clark, Cardiovascular Division, King's College London, St. Thomas' Hospital. Briefly, MI was induced in anaesthetised C57B1/6 male mice by ligation of the left anterior descending coronary artery for 30 minutes, followed by reperfusion. Animals were sacrificed one hour, one day or one week post MI and protein extracts prepared in Laemmli buffer for Western blotting and immunoassay to determine levels of Tβ4 and AcSDKP, respectively. For in vivo studies, one hour after recovery, animals received intraperitoneal injection of Tβ4 (150 μg in 0.1 ml PBS) or vehicle (0.1 ml PBS) as previously reported. Further injections were given after 2 and 4 days and hearts were harvested after 2, 4 and 7 days following ligation and prepared for western analysis and histological sectioning, as described above. Infarcts with equivalent extent of injury in the left ventricle were assessed for immunofluorescence and cell counts. […] We next determined the presence of adult EPDC-derived cardiomyocytes in vivo, in both a gain of function (intact heart) mouse model, established by intraperitoneal injection of Tβ4 or vehicle (PBS) into wild type adult mice, and an injury model of myocardial infarctions (by coronary artery ligation) in adult mice (n=27 MIs in total), treated with either Tβ4 (n=13) or vehicle (n=14, injection regimen as for gain of function; refer to Methods). Hearts were assessed using a combination of western and immunofluorescence analyses for myocardial markers after 2, 4, 7, 14 and 28 days for the gain of function model and 2, 4 and 7 days for the injury model.
# [2] = infarcted hearts, 2 days of treatment, n=3, 35 fields
substance,measurement,setting,value
Thymosin β4 [Tβ4],numbers of SMαA- and Tie2-positive cells,[1],significantly increased
same,time to Akt activation (P-Ser 473),Akt (P-Ser 473),≤ 10 min
same,TNF-α reduction vs vehicle (western),infarcted mouse hearts; 2 days of treatment post-MI,6.2 fold
same,IL-10 increase compared to control (western),infarcted mouse hearts; 2 days post-MI,8.1 fold
same,infarct area (Image J),"infarcted mouse hearts; 2 days post-MI, section through left ventricle wall",0.292 mm^2
same,increase in vessel area vs control (Image J),infarcted mouse hearts; 7 days of treatment post-MI,2 fold
same,vessel area/field,"infarcted mouse hearts; 7 days of treatment post-MI, n=7",10.67+/−0.55%
same,scar volume vs vehicle (trichrome),infarcted mouse hearts; 7 days post MI,reduced scar volume
same,"epicardial fibrosis, share of the epicardium affected","infarcted mouse hearts; 7 days post MI, trichrome",≤ 20%
same,"EPDC-derived (EYFP+) cardiomyocytes, % of total cardiomyocytes per field","infarcted mouse hearts; Gata5-EYFP mice, 7 days treatment post-MI",14.1%
same,"EYFP+ cardiomyocytes, mean number of positive cells/field +/−SEM","infarcted mouse hearts; Gata5-EYFP mice, 7 days treatment post-MI, n=6, 38 fields",49.53+/−4.68 cells/field
same,Raldh2 up-regulation vs vehicle (western),infarcted mouse hearts; d2 MI,1.8 fold
same,Tbx18 up-regulation vs vehicle (western),infarcted mouse hearts; d2 MI,2.8 fold
same,infiltration of MPO+ neutrophils vs controls,infarcted mouse hearts; d2 and d4 post-MI,reduced infiltration
same,macrophages (F4/80+) vs vehicle,infarcted mouse hearts; d2 post MI,elevated
same,CD4:CD8 ratio,infarcted mouse hearts; d4 post-MI,7.4
same,CD4:CD8 ratio,infarcted mouse hearts; d7 post-MI,10.8
same,PECAM protein expression increase (western),infarcted mouse hearts; d7 post-MI,9.6 fold
same,SMαA protein expression increase (western),infarcted mouse hearts; d7 post-MI,8.3 fold
same,macrophages (F4/80+) vs vehicle,infarcted mouse hearts; d7 post-MI,reduced
same,fibroblast number (EYFP+/procollagen type I) vs control,"infarcted mouse hearts; d7 post-MI, p=0.57",did not vary significantly
same,"EYFP+ cardiomyocytes located in remote myocardium, % of total EYFP+ cardiomyocytes per field","infarcted mouse hearts; day 7 post-MI, left ventricle",40%
same,"EYFP+ cardiomyocytes proximal to the border zone, % of total EYFP+ cardiomyocytes per field","infarcted mouse hearts; day 7 post-MI, left ventricle",58%
same,IL-6 reduction vs vehicle (western),infarcted mouse hearts; early stages post-MI,4.1 fold
same,MCP-1 up-regulation (western),"infarcted mouse hearts; early, d2 post-MI",3.9 fold
same,proliferation of cells (Ki67) within the epicardium and subepicardial space,infarcted mouse hearts; following MI,increase in proliferation
same,Isl1 elevated levels (western),infarcted mouse hearts; from 2 days post-MI onwards,5.1 fold
same,Nkx2.5 elevated levels (western),infarcted mouse hearts; from 2 days post-MI onwards,1.9 fold
same,Raldh2+ mean number of positive cells per field +/−SEM,infarcted mouse hearts; [2],41.8+/−1.9 cells per field
same,Tbx18+ mean number of positive cells per field +/−SEM,infarcted mouse hearts; [2],36.1+/−3.1 cells per field
same,increase in number of endothelial (PECAM+) cells vs vehicle,"infarcted mouse hearts; infarcted hearts, 4 days",3.5 fold
same,PECAM+ number of cells per field +/−SEM,"infarcted mouse hearts; infarcted hearts, 4 days, n=3",150.33+/−10.94 cells per field
same,MCP-1 levels (in words),infarcted mouse hearts; initial stages post-MI,significantly reduced levels
same,levels of MMP3 and -9,infarcted mouse hearts; post MI,reduced levels
same,levels of TIMP1 and -2,infarcted mouse hearts; post MI,without an effect
same,P-NFκB positive cells at the infarct border zone,"infarcted mouse hearts; post-MI, immunostaining",reduced number
